Experimental findings from patent US10618901B2 (GlaxoSmithKline Intellectual Property Development Limited, priority 2014, dated 2020) are described below.

For the first assay, the target named is T1, LRRK2 Ser935 phosphorylation in SH-SY5Y cells over-expressing recombinant full length LRRK2 (Homo sapiens, UniProt Q5S007).
T1 construct: A BacMam virus expressing full length recombinant LRRK2 was purchased from Invitrogen; host or cells: SH-SY5Y (BacMam transduction)
T1 sequence (Q5S007 whole entry): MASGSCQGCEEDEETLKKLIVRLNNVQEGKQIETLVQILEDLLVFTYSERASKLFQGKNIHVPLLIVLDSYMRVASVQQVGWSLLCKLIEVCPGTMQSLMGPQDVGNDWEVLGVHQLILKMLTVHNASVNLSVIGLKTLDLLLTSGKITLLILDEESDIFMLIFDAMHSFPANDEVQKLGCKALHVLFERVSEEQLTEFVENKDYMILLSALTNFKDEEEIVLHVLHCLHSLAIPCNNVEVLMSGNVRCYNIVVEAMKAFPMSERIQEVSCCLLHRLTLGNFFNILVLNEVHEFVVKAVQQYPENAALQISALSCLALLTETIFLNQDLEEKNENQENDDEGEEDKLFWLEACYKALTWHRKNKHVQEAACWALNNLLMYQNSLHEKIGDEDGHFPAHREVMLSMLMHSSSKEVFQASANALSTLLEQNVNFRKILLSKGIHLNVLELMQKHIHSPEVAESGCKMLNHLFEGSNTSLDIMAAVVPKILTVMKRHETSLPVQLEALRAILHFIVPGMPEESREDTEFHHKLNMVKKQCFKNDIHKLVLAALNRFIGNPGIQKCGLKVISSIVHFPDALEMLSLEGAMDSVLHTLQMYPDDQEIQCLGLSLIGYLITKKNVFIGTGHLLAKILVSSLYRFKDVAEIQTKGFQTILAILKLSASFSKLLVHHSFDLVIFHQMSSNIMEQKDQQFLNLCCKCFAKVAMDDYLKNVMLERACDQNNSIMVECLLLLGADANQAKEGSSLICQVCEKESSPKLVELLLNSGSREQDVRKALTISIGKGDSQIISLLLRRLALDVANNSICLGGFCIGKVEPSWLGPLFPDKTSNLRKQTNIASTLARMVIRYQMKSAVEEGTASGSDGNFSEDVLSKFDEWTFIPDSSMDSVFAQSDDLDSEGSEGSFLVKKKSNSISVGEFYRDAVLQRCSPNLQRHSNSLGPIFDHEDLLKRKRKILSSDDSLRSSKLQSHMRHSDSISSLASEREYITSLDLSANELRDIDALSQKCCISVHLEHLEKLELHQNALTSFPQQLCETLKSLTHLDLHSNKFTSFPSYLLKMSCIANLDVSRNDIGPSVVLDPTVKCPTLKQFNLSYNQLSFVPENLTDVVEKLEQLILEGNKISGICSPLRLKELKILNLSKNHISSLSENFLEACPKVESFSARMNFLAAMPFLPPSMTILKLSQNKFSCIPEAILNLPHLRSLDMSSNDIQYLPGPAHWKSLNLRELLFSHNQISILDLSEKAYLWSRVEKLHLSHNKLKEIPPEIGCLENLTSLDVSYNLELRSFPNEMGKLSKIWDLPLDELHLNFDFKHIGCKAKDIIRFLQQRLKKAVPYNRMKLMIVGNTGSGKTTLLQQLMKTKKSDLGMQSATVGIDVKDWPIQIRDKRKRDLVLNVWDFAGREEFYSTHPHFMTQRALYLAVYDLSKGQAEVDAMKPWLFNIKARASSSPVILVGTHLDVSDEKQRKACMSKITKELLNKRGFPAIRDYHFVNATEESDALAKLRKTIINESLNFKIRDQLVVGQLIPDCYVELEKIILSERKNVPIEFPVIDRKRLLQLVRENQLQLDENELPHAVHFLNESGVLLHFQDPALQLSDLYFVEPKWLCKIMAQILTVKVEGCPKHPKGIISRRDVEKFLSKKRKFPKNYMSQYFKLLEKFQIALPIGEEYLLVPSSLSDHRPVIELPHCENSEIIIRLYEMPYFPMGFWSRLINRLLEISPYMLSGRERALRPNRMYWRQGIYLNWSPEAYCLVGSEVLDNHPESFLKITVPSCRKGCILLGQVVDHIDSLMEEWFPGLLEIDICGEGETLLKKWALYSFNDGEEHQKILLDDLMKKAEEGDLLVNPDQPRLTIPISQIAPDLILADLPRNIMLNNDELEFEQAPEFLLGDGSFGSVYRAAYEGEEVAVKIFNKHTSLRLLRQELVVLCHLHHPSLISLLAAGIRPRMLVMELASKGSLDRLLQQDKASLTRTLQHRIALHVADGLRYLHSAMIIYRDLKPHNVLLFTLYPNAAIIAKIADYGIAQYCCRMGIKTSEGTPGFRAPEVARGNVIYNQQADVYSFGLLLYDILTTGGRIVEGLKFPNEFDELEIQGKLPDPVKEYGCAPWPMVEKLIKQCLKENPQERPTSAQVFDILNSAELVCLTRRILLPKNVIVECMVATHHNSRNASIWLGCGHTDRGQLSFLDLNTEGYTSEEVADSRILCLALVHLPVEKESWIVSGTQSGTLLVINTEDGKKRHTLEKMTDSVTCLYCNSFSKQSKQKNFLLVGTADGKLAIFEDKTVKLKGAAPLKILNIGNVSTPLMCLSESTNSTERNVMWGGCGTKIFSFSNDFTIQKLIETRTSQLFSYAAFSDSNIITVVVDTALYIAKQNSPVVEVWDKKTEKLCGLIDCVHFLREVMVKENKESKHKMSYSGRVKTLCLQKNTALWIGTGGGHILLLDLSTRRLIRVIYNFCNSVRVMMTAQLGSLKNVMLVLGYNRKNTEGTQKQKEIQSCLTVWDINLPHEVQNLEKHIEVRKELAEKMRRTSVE
Briefly: Recombinant cellular LRRK2 AlphaScreen assay. Format: cell-based. The following applies: LRRK2 Ser935 phosphorylation, 60 minutes, read-out: recombinant cellcular LRRK2 alphaScreen assay (pIC50) (converted). From the text: Recombinant Cellular LRRK2 AlphaScreen Assay
To determine the activity of compounds against LRRK2 kinase activity in cells, the observed LRRK2 kinase-dependent modulation of LRRK2 Ser 935 phosphorylation (Dzamko et al., 2010, Biochem. J. 430: 405-413) was utilized to develop a quantitative 384 well plate-based immunoassay of LRRK2 Ser935 phosphorylation in the human neuroblastoma cell line SH-SY5Y, engineered to over-express recombinant full length LRRK2 protein.
A BacMam virus expressing full length recombinant LRRK2 was purchased from Invitrogen and amplified by inoculation of SF-9 cells at MOI 0.3 for 4-5 days in Sf-900 III SFM medium supplemented with 3% fetal bovine serum. Infected cell cultures were then centrifuged at 2000 g for 20 minutes, viral supernatant titer determined by anti-gp64 plaque assay and stored at 4° C.
Affinity-purified anti-phospho LRRK2 Ser935 sheep polyclonal antibody (Dzamko et al., 2010, Biochem. J. 430: 405-413) was biotinylated by standard methods (PerkinElmer). Anti-LRRK2 rabbit polyclonal antibody was purchased from Novus Biologicals. AlphaScreen Protein A IgG Kit (including acceptor and donor beads) was purchased from Perkin Elmer.
SH-SY5Y cells were grown in DMEM/F12 medium with 10% dialysed fetal bovine serum and harvested by treatment with 0.5% trypsin-EDTA for 5 minutes at 37° C. followed by centrifugation at 1000 rpm for 4 minutes. The cell pellet was resuspended in Opti-MEM reduced serum media (Invitrogen) at 200,000 cells/ml and mixed with the BacMam LRRK2 virus at M01=50. 50 μl cell solutions were then dispensed to each well of a 384-well plate and incubated at 37° C., 5% CO2 for 24 hours.
Serial dilutions of test compounds were prepared in Opti-MEM reduced serum media (Invitrogen) and 5.6 ul transferred from compound plate to cell assay plate to achieve a top final assay concentration of 10 uM. DMSO was used in certain wells as controls. Cells were incubated at 37° C., 5% CO2 for 60 minutes. The medium was then removed and cells lysed by addition of 20 ul cell lysis buffer (Cell Signaling Technology) and incubation at 4° C. for 20 minutes. 10 ul of antibody/acceptor bead mix [(1/1000 biotinylated-pS935 LRRK2 antibody, 1/1000 total-LRRK2 antibody, 1/100 Acceptor beads in AlphaScreen detection buffer (25 mM Hepes (pH 7.4), 0.5% Triton X-100, 1 mg/ml Dextran 500 and 0.1% BSA)] was then added to each well and plates incubated for 2 hours at ambient temperature in the dark. 10 μl of donor beads solution (1/33.3 donor beads in AlphaScreen detection buffer) was then added to each well. Following incubation for a further 2 hours at ambient temperature in the dark, plates were read on an EnVision™ plate reader at emission 520-620 nm with excitation 680 nm. Dose response curve data was based on sigmoidal dose-response model.
For orientation: Bead proximity is the source of the signal in Alpha formats.
With `CCOc1nc(Nc2cnn(C3CNCCC3(F)F)c2C)nc2[nH]ccc12` (single isomer, unassigned) [Example E117, N-(1-(4,4-difluoropiperidin-3-yl)-5-methyl-1H-pyrazol-4-yl)-4-ethoxy-7H-pyrrolo[2,3-d]pyrimidin-2-amine], the IC50 was 0.00251 µM.

Staying with this assay, now noted: read-out: pIC50 in the recombinant cellular LRRK2 alphaScreen assay (converted).
Regarding `CCOc1nc(Nc2cnn(C3CCCC3O)c2Cl)nc2[nH]ccc12` (racemic) [Example E36, (±)-2-(5-chloro-4-((4-ethoxy-7H-pyrrolo-[2,3-d]-pyrimidin-2-yl)amino)-1H-pyrazol-1-yl)cyclopentanol], the IC50 is at most 0.1 µM.

In the case of `CCOc1nc(Nc2cnn(C3CCCC3O)c2C)nc2[nH]ccc12` (racemic) [Example E39, (±)-2-(4-((4-ethoxy-7H-pyrrolo[2,3-d]pyrimidin-2-yl)amino)-5-methyl-1H-pyrazol-1-yl)cyclopentanol], the IC50 is at most 0.1 µM.

For the molecule `CCOc1nc(Nc2cnn(C3CCC(O)C3)c2Cl)nc2[nH]ccc12` (racemic) [Example E101, (±)-trans-3-(5-chloro-4-((4-ethoxy-7H-pyrrolo[2,3-d]pyrimidin-2-yl)amino)-1H-pyrazol-1-yl) cyclopentanol], the IC50 is at most 0.1 µM.

Regarding `CCOc1nc(Nc2cnn(C3CN(C4COC4)CCO3)c2Cl)nc2[nH]ccc12` (racemic) [Example E140, (±)-N-(5-chloro-1-(4-(oxetan-3-yl)morpholin-2-yl)-1H-pyrazol-4-yl)-4-ethoxy-7H-pyrrolo [2,3-d]pyrimidin-2-amine], the IC50 was at most 0.1 µM.

As for `CCOc1nc(Nc2cnn(C3CC(N4CCOCC4)CCC3(F)F)c2Cl)nc2[nH]ccc12` (racemic) [Example E145, (±)-trans-N-(5-chloro-1-(2,2-difluoro-5-morpholinocyclohexyl)-1H-pyrazol-4-yl)-4-ethoxy-7H-pyrrolo[2,3-d]pyrimidin-2-amine], the IC50 was at most 0.1 µM.

As for `CCOc1nc(Nc2cnn(C3CCOC3)c2C)nc2[nH]ccc12` (single isomer, unassigned) [Example E16, 4-ethoxy-N-(5-methyl-1-(tetrahydrofuran-3-yl)-1H-pyrazol-4-yl)-7H-pyrrolo-[2,3-d]-pyrimidin-2-amine], the IC50 was at most 0.1 µM.

`CCOc1nc(Nc2cnn(C3CCCOC3)c2C)nc2[nH]ccc12` (single isomer, unassigned) [Example E30, 4-ethoxy-N-(5-methyl-1-(tetrahydro-2H-pyran-3-yl)-1H-pyrazol-4-yl)-7H-pyrrolo-[2,3-d]pyrimidin-2-amine]: the IC50 is at most 0.1 µM.

In the case of `CCOc1nc(Nc2cnn([C@@H]3CCO[C@H](C)C3)c2C)nc2[nH]ccc12` (single isomer, unassigned) [Example E42], the IC50 was at most 0.1 µM.

For the molecule `CCOc1nc(Nc2cnn(C3CN(C)CC3F)c2C)nc2[nH]ccc12` (single isomer, unassigned) [Example E59, 4-ethoxy-N-(1-(4-fluoro-1-methylpyrrolidin-3-yl)-5-methyl-1H-pyrazol-4-yl)-7H-pyrrolo-[2,3-d]pyrimidin-2-amine], the IC50 was at most 0.1 µM.

`CCOc1nc(Nc2cnn(C3CCCC3(C)O)c2C)nc2[nH]ccc12` (single isomer, unassigned) [Example E77, trans-2-(4-((4-ethoxy-7H-pyrrolo-[2,3-d]pyrimidin-2-yl)amino)-5-methyl-1H-pyrazol-1-yl)-1-methylcyclopentanol]: the IC50 was at most 0.1 µM.

Take `CCOc1nc(Nc2cnn(CC(C)N3CCOCC3)c2C)nc2[nH]ccc12` (single isomer, unassigned) [Example E92]: the IC50 was at most 0.1 µM.

Consider `CCOc1nc(Nc2cnn(C3CCN(C4COC4)CC3F)c2C)nc2[nH]ccc12` (single isomer, unassigned) [Example E102, cis-4-ethoxy-N-(1-(3-fluoro-1-(oxetan-3-yl)piperidin-4-yl)-5-methyl-1H-pyrazol-4-yl)-7H-pyrrolo[2,3-d]pyrimidin-2-amine], for which the IC50 was at most 0.1 µM.

`CCOc1nc(Nc2cnn(C3CCN(C4COC4)CC3F)c2Cl)nc2[nH]ccc12` (single isomer, unassigned) [Example E106, cis-N-(5-chloro-1-(3-fluoro-1-(oxetan-3-yl)piperidin-4-yl)-1H-pyrazol-4-yl)-4-ethoxy-7H-pyrrolo[2,3-d]pyrimidin-2-amine]: the IC50 was at most 0.1 µM.

Regarding `CCOc1nc(Nc2cnn(C3CCC(N4CCOCC4)C3)c2C)nc2[nH]ccc12` (single isomer, unassigned) [Example E108, (trans)-4-ethoxy-N-(5-methyl-1-(3-morpholinocyclopentyl)-1H-pyrazol-4-yl)-7H-pyrrolo[2,3-d]pyrimidin-2-amine], the IC50 is at most 0.1 µM.

As to `CCOc1nc(Nc2cnn(C3CCC(N4CCOCC4)C3)c2Cl)nc2[nH]ccc12` (single isomer, unassigned) [Example E110, (trans)-N-(5-chloro-1-(3-morpholinocyclopentyl)-1H-pyrazol-4-yl)-4-ethoxy-7H-pyrrolo [2,3-d]pyrimidin-2-amine], the IC50 was at most 0.1 µM.

With `CCOc1nc(Nc2cnn(C3CNCCC3(F)F)c2C)nc2[nH]ccc12` (single isomer, unassigned) [Example E117, N-(1-(4,4-difluoropiperidin-3-yl)-5-methyl-1H-pyrazol-4-yl)-4-ethoxy-7H-pyrrolo[2,3-d]pyrimidin-2-amine], the IC50 was at most 0.1 µM.

Consider `CCOc1nc(Nc2cnn(C3CN(C4COC4)CCC3(F)F)c2C)nc2[nH]ccc12` (single isomer, unassigned) [Example E119, N-(1-(4,4-difluoro-1-(oxetan-3-yl)piperidin-3-yl)-5-methyl-1H-pyrazol-4-yl)-4-ethoxy-7H-pyrrolo[2,3-d]pyrimidin-2-amine], for which the IC50 was at most 0.1 µM.

With `CCOc1nc(Nc2cnn(C3CN(C4COC4)CCC3(F)F)c2Cl)nc2[nH]ccc12` (single isomer, unassigned) [Example E123, N-(5-chloro-1-(4,4-difluoro-1-(oxetan-3-yl)piperidin-3-yl)-1H-pyrazol-4-yl)-4-ethoxy-7H-pyrrolo[2,3-d]pyrimidin-2-amine], the IC50 is at most 0.1 µM.

In the case of `CCOc1nc(Nc2cnn(C3CNCCC3(F)F)c2Cl)nc2[nH]ccc12` (single isomer, unassigned) [Example E125, N-(5-chloro-1-(4,4-difluoropiperidin-3-yl)-1H-pyrazol-4-yl)-4-ethoxy-7H-pyrrolo [2,3-d] pyrimidin-2-amine], the IC50 is at most 0.1 µM.

`CCOc1nc(Nc2cnn(C3CCOCC3F)c2C)nc2[nH]ccc12` (single isomer, unassigned) [Example E128, (cis)-4-ethoxy-N-(1-(3-fluorotetrahydro-2H-pyran-4-yl)-5-methyl-1H-pyrazol-4-yl)-7H-pyrrolo[2,3-d]pyrimidin-2-amine]: the IC50 is at most 0.1 µM.

Turning to `CCOc1nc(Nc2cnn(C3CCN(C4COC4)CC3F)c2CC)nc2[nH]ccc12` (single isomer, unassigned) [Example E130, (trans)-4-ethoxy-N-(5-ethyl-1-(3-fluoro-1-(oxetan-3-yl)piperidin-4-yl)-1H-pyrazol-4-yl)-7H-pyrrolo[2,3-d]pyrimidin-2-amine], the IC50 is at most 0.1 µM.

Regarding `CCOc1nc(Nc2cnn(C3CCN(C4COC4)CC3(F)F)c2C)nc2[nH]ccc12` (single isomer, unassigned) [Example E131, N-(1-(3,3-difluoro-1-(oxetan-3-yl)piperidin-4-yl)-5-methyl-1H-pyrazol-4-yl)-4-ethoxy-7H-pyrrolo[2,3-d]pyrimidin-2-amine], the IC50 was at most 0.1 µM.

For the molecule `CCOc1nc(Nc2cnn(C3CCN(C4COC4)CC3(F)F)c2Cl)nc2[nH]ccc12` (single isomer, unassigned) [Example E133, N-(5-chloro-1-(3,3-difluoro-1-(oxetan-3-yl)piperidin-4-yl)-1H-pyrazol-4-yl)-4-ethoxy-7H-pyrrolo[2,3-d]pyrimidin-2-amine], the IC50 is at most 0.1 µM.
